Source: PubChem BioAssay (NCI)
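Test compounds were applied to cells in 96-well plates for 48 hours at 5 doses. Definition used: TGI = concentration required for complete inhibition of growth.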

Columns and labels:
Experiment in all cases: NCI-60 cell line screen, 48 h
UACC-257 melanoma = tested on: UACC-257 melanoma
OVCAR-3 ovarian = tested on: OVCAR-3 ovarian
LXFL 529 NSCLC = tested on: LXFL 529 NSCLC
RPMI-8226 leukemia = tested on: RPMI-8226 leukemia
RXF-631 renal = tested on: RXF-631 renal
SNB-78 CNS = tested on: SNB-78 CNS
DLD-1 colon = tested on: DLD-1 colon
SNB-19 CNS = tested on: SNB-19 CNS
SNB-75 CNS = tested on: SNB-75 CNS
XF 498 CNS = tested on: XF 498 CNS
KM12 colon = tested on: KM12 colon
HOP-18 NSCLC = tested on: HOP-18 NSCLC
OVCAR-8 ovarian = tested on: OVCAR-8 ovarian
U251 CNS = tested on: U251 CNS
HL-60(TB) leukemia = tested on: HL-60(TB) leukemia
OVCAR-5 ovarian = tested on: OVCAR-5 ovarian
A498 renal = tested on: A498 renal
M14 melanoma = tested on: M14 melanoma
DMS 114 small cell lung = tested on: DMS 114 small cell lung
NCI-H460 lung = tested on: NCI-H460 lung
SN12C renal = tested on: SN12C renal
KM20L2 colon = tested on: KM20L2 colon
M19-MEL melanoma = tested on: M19-MEL melanoma
NCI-H226 lung = tested on: NCI-H226 lung
CAKI-1 renal = tested on: CAKI-1 renal
MOLT-4 leukemia = tested on: MOLT-4 leukemia
CCRF-CEM leukemia = tested on: CCRF-CEM leukemia
HOP-92 NSCLC = tested on: HOP-92 NSCLC
SK-OV-3 ovarian = tested on: SK-OV-3 ovarian
OVCAR-4 ovarian = tested on: OVCAR-4 ovarian
NCI-H522 lung = tested on: NCI-H522 lung
HCT-15 colon = tested on: HCT-15 colon
HT29 colon = tested on: HT29 colon
UO-31 renal = tested on: UO-31 renal
HCC-2998 colon = tested on: HCC-2998 colon
IGROV1 ovarian = tested on: IGROV1 ovarian
SK-MEL-28 melanoma = tested on: SK-MEL-28 melanoma
HOP-62 NSCLC = tested on: HOP-62 NSCLC
SK-MEL-2 melanoma = tested on: SK-MEL-2 melanoma
SW-620 colon = tested on: SW-620 colon
TK-10 renal = tested on: TK-10 renal
A549 NSCLC = tested on: A549 NSCLC
UACC-62 melanoma = tested on: UACC-62 melanoma
NCI-H23 lung = tested on: NCI-H23 lung
786-0 renal = tested on: 786-0 renal
EKVX NSCLC = tested on: EKVX NSCLC
HCT-116 colon = tested on: HCT-116 colon
SF-268 CNS = tested on: SF-268 CNS
COLO 205 colon = tested on: COLO 205 colon
MALME-3M melanoma = tested on: MALME-3M melanoma
SF-295 CNS = tested on: SF-295 CNS
ACHN renal = tested on: ACHN renal
K-562 leukemia = tested on: K-562 leukemia
DMS 273 small cell lung = tested on: DMS 273 small cell lung

Compound: COC(=O)C1CCC(=NC2c3ccccc3-c3ccccc32)N1 (centres undefined)
- TGI (UACC-257 melanoma): > 100 µM
- TGI (OVCAR-3 ovarian): > 100 µM
- TGI (LXFL 529 NSCLC): > 100 µM
- TGI (RPMI-8226 leukemia): > 100 µM
- TGI (RXF-631 renal): > 100 µM
- TGI (SNB-78 CNS): > 100 µM
- TGI (DLD-1 colon): > 100 µM
- TGI (SNB-19 CNS): > 100 µM
- TGI (SNB-75 CNS): > 100 µM
- TGI (XF 498 CNS): > 100 µM
- TGI (KM12 colon): > 100 µM
- TGI (HOP-18 NSCLC): > 100 µM
- TGI (OVCAR-8 ovarian): > 100 µM
- TGI (U251 CNS): > 100 µM
- TGI (HL-60(TB) leukemia): > 100 µM
- TGI (OVCAR-5 ovarian): > 100 µM
- TGI (A498 renal): > 100 µM
- TGI (M14 melanoma): > 100 µM
- TGI (DMS 114 small cell lung): > 100 µM
- TGI (NCI-H460 lung): > 100 µM
- TGI (SN12C renal): > 100 µM
- TGI (KM20L2 colon): > 100 µM
- TGI (M19-MEL melanoma): > 100 µM
- TGI (NCI-H226 lung): > 100 µM
- TGI (CAKI-1 renal): > 100 µM
- TGI (MOLT-4 leukemia): > 100 µM
- TGI (CCRF-CEM leukemia): > 100 µM
- TGI (HOP-92 NSCLC): 76.6 µM
- TGI (SK-OV-3 ovarian): > 100 µM
- TGI (OVCAR-4 ovarian): > 100 µM
- TGI (NCI-H522 lung): 58.6 µM
- TGI (HCT-15 colon): > 100 µM
- TGI (HT29 colon): > 100 µM
- TGI (UO-31 renal): > 100 µM
- TGI (HCC-2998 colon): > 100 µM
- TGI (IGROV1 ovarian): > 100 µM
- TGI (SK-MEL-28 melanoma): > 100 µM
- TGI (HOP-62 NSCLC): > 100 µM
- TGI (SK-MEL-2 melanoma): > 100 µM
- TGI (SW-620 colon): > 100 µM
- TGI (TK-10 renal): > 100 µM
- TGI (A549 NSCLC): > 100 µM
- TGI (UACC-62 melanoma): > 100 µM
- TGI (NCI-H23 lung): > 100 µM
- TGI (786-0 renal): > 100 µM
- TGI (EKVX NSCLC): > 100 µM
- TGI (HCT-116 colon): > 100 µM
- TGI (SF-268 CNS): > 100 µM
- TGI (COLO 205 colon): > 100 µM
- TGI (MALME-3M melanoma): > 100 µM
- TGI (SF-295 CNS): > 100 µM
- TGI (ACHN renal): > 100 µM
- TGI (K-562 leukemia): > 100 µM
- TGI (DMS 273 small cell lung): > 100 µM
